{"source": "patent US20210267865A1", "about": "“COSMETIC COMPOSITION FOR INCREASING SKIN EXFOLIATION” (LG HOUSEHOLD & HEALTH CARE LTD., priority 2018, published 2021)", "key": {"pig skin": {"test_system": "pig skin", "assay": "Evaluation of pig skin exfoliation (number of exfoliated cells from biopsied pig skin)", "details": "for activity versus gluconolactone (PHA) or lactic acid (AHA) at pH 4: neutral or weakly acidic pH of 5-7", "method": "The exfoliation evaluation method described in Journal of the European Academy of Dermatology and Venereology, 2014, 28, 415-423 was used. Specifically, pig skin was biopsied and a sample to be tested was added. Then, the number of exfoliated cells was measured with a cell counter and was plotted with water as a negative control group (0%) and 10% gluconolactone at pH 4 as a positive control group (100%)."}, "[1]": {"test_system": "stratum corneum of inside forearm and upper arm", "assay": "Evaluation of exfoliation turnover enhancement by DHA staining (human skin test)", "assay_type": "in vivo", "details": "for turnover time (TT100): polyol humectant content 10% or 50%, non-application group 20 days", "method": "DHA staining for evaluating the speed of exfoliation turnover was conducted for 10 healthy males aged between 20 and 40 years according to the method described in Dermatology 1993, 186, 133-137. Prior to sample application, the color of the inside forearm and upper arm of the test subjects was measured with Chroma Meter. Then, a 1.5×1.5 cm gauze soaked with about 0.4 mL of 10% dihydroxyacetone (DHA) was attached to the inside forearm and upper arm for 8 hours. 48 hours later, the color of the part that was pigmented brown by DHA was compared with that before the sample application. Subsequently, while applying the sample twice a day, the time required to return to the original skin color was measured by measuring the skin color every day with Chroma Meter. TT (turnover time) 100% means the time required for the existing stratum corneum to be completely (100%) replaced with a new stratum corneum. In this experiment, the time required for the skin pigmented by DHA corneum to completely return to the original color was compared by regression analysis. The result was compared with that of the negative control group (20 days)."}, "[2]": {"details": "with glycerin, dipropylene glycol or 1,3-butylene glycol, polyol humectant content exceeding 10 wt %"}}, "data": [{"smiles": "N[C@@H](CO)C(=O)O", "note": "[Serine, serine]", "values": [{"measurement": "exfoliating effect", "setting": "pig skin; 5% serine with humectant mixtures (glycerin 1:DPG 1:1,3-BG 1) (FIG. 6)", "value": "decreased similarly"}, {"measurement": "exfoliation effect", "setting": "pig skin; 5% serine, pH 6, concentration of glycerin 10% or higher (FIG. 1)", "value": 0, "unit": "%"}, {"measurement": "exfoliation activity", "setting": "pig skin; 5% serine, pH 6, dipropylene glycol or 1,3-butylene glycol exceeding 10% (FIGS. 3 and 4)", "value": "decreased below that of water (negative control group)"}, {"measurement": "activity versus gluconolactone (PHA) or lactic acid (AHA) at pH 4", "setting": "pig skin", "value": "comparable to or better than"}, {"measurement": "Exfoliation ability %", "setting": "pig skin; serine 0.5 wt %, glycerin 0 wt %", "value": 56, "unit": "%"}, {"measurement": "Exfoliation ability %", "setting": "pig skin; serine 0.5 wt %, glycerin 0.5 wt %", "value": 53, "unit": "%"}, {"measurement": "Exfoliation ability %", "setting": "pig skin; serine 0.5 wt %, glycerin 1 wt %", "value": 34, "unit": "%"}, {"measurement": "Exfoliation ability %", "setting": "pig skin; serine 0.5 wt %, glycerin 5 wt %", "value": 19, "unit": "%"}, {"measurement": "Exfoliation ability %", "setting": "pig skin; serine 0.5 wt %, glycerin 10 wt %", "value": 13, "unit": "%"}, {"measurement": "Exfoliation ability %", "setting": "pig skin; serine 5 wt %, glycerin 0 wt %", "value": 91, "unit": "%"}, {"measurement": "Exfoliation ability %", "setting": "pig skin; serine 5 wt %, glycerin 0.1 wt %", "value": 85, "unit": "%"}, {"measurement": "Exfoliation ability %", "setting": "pig skin; serine 5 wt %, glycerin 0.5 wt %", "value": 86, "unit": "%"}, {"measurement": "Exfoliation ability %", "setting": "pig skin; serine 5 wt %, glycerin 1 wt %", "value": 59, "unit": "%"}, {"measurement": "Exfoliation ability %", "setting": "pig skin; serine 5 wt %, glycerin 2 wt %", "value": 47, "unit": "%"}, {"measurement": "Exfoliation ability %", "setting": "pig skin; serine 5 wt %, glycerin 3 wt %", "value": 23, "unit": "%"}, {"measurement": "Exfoliation ability %", "setting": "pig skin; serine 5 wt %, glycerin 4 wt %", "value": 26, "unit": "%"}, {"measurement": "Exfoliation ability %", "setting": "pig skin; serine 5 wt %, glycerin 5 wt %", "value": 21, "unit": "%"}, {"measurement": "Exfoliation ability %", "setting": "pig skin; serine 5 wt %, glycerin 7 wt %", "value": 16, "unit": "%"}, {"measurement": "Exfoliation ability %", "setting": "pig skin; serine 5 wt %, glycerin 10 wt %", "value": 16, "unit": "%"}, {"measurement": "Exfoliation ability %", "setting": "pig skin; serine 5 wt %, glycerin 12 wt %", "value": "−2", "unit": "%"}, {"measurement": "Exfoliation ability %", "setting": "pig skin; serine 5 wt %, glycerin 15 wt %", "value": "−5", "unit": "%"}, {"measurement": "exfoliation effect", "setting": "pig skin; [2]", "value": 0, "unit": "%"}, {"measurement": "decrease of TT100% versus non-application group", "setting": "[1]; 5% serine, applied twice a day", "value": 6, "unit": "days"}, {"measurement": "TT100% (turnover time)", "setting": "[1]; 5% serine, applied twice a day, non-application group 20 days (FIG. 13)", "value": 14, "unit": "days"}, {"measurement": "turnover time (TT100)", "setting": "[1]", "value": "no significant difference"}, {"measurement": "visual change after application for 10 days", "setting": "[1]; serine alone at concentrations of 0.5% and 5% (FIG. 12)", "value": "effective"}, {"measurement": "visual change after application for 10 days", "setting": "[1]; serine with glycerin concentration 10% or 50% (FIG. 12)", "value": "no significant difference from the non-application group"}, {"measurement": "TT100% (turnover time)", "setting": "[1]; serine with glycerin concentration 10% or 50% (FIG. 13)", "value": "no significant difference from the non-application group"}]}, {"smiles": "C[N+](C)(C)CC(O)CC(=O)[O-]", "note": "(centres unmarked) [Carnitine, carnitine]", "values": [{"measurement": "exfoliation effect", "setting": "pig skin; 5% carnitine, pH 7, concentration of glycerin higher than 10 wt % (FIG. 2)", "value": 0, "unit": "%"}, {"measurement": "exfoliation activity", "setting": "pig skin; 5% carnitine, pH 7, with 10% or 12% glycerin, dipropylene glycol or 1,3-butylene glycol (FIG. 5)", "value": "decreased to the levels where human skin test is meaningless"}, {"measurement": "Exfoliation ability %", "setting": "pig skin; carnitine 0.5 wt %, glycerin 0 wt %", "value": 61, "unit": "%"}, {"measurement": "Exfoliation ability %", "setting": "pig skin; carnitine 0.5 wt %, glycerin 0.5 wt %", "value": 50, "unit": "%"}, {"measurement": "Exfoliation ability %", "setting": "pig skin; carnitine 0.5 wt %, glycerin 1 wt %", "value": 18, "unit": "%"}, {"measurement": "Exfoliation ability %", "setting": "pig skin; carnitine 0.5 wt %, glycerin 5 wt %", "value": 11, "unit": "%"}, {"measurement": "Exfoliation ability %", "setting": "pig skin; carnitine 0.5 wt %, glycerin 10 wt %", "value": 0, "unit": "%"}, {"measurement": "Exfoliation ability %", "setting": "pig skin; carnitine 5 wt %, glycerin 0 wt %", "value": 100, "unit": "%"}, {"measurement": "Exfoliation ability %", "setting": "pig skin; carnitine 5 wt %, glycerin 0.1 wt %", "value": 89, "unit": "%"}, {"measurement": "Exfoliation ability %", "setting": "pig skin; carnitine 5 wt %, glycerin 0.5 wt %", "value": 91, "unit": "%"}, {"measurement": "Exfoliation ability %", "setting": "pig skin; carnitine 5 wt %, glycerin 1 wt %", "value": 55, "unit": "%"}, {"measurement": "Exfoliation ability %", "setting": "pig skin; carnitine 5 wt %, glycerin 2 wt %", "value": 53, "unit": "%"}, {"measurement": "Exfoliation ability %", "setting": "pig skin; carnitine 5 wt %, glycerin 3 wt %", "value": 30, "unit": "%"}, {"measurement": "Exfoliation ability %", "setting": "pig skin; carnitine 5 wt %, glycerin 4 wt %", "value": 19, "unit": "%"}, {"measurement": "Exfoliation ability %", "setting": "pig skin; carnitine 5 wt %, glycerin 5 wt %", "value": 12, "unit": "%"}, {"measurement": "Exfoliation ability %", "setting": "pig skin; carnitine 5 wt %, glycerin 7 wt %", "value": 5, "unit": "%"}, {"measurement": "Exfoliation ability %", "setting": "pig skin; carnitine 5 wt %, glycerin 10 wt %", "value": 4, "unit": "%"}, {"measurement": "Exfoliation ability %", "setting": "pig skin; carnitine 5 wt %, glycerin 12 wt %", "value": 0, "unit": "%"}, {"measurement": "Exfoliation ability %", "setting": "pig skin; carnitine 5 wt %, glycerin 15 wt %", "value": 0, "unit": "%"}, {"measurement": "activity versus gluconolactone (PHA) or lactic acid (AHA) at pH 4", "setting": "pig skin", "value": "comparable to or better than"}, {"measurement": "exfoliation effect", "setting": "pig skin; [2]", "value": 0, "unit": "%"}, {"measurement": "turnover time (TT100)", "setting": "[1]", "value": "no significant difference"}]}]}
